Test results: patent publication US20180235931A1, “USE OF NEUROKININ-1 ANTAGONISTS AS ANTITUSSIVES” (Menlo Therapeutics Inc., priority 2017, published 2018)

Experiments:
[1] = cited from earlier work
[2] = In vitro skin permeation, Franz diffusion cell; assay type: in vitro ADME; conditions: topical formulations B and C on human skin, 37 C, LC-MS/MS
Method: In vitro skin permeation of serlopitant in topical formulations A-D was evaluated using a Franz diffusion cell. FIG. 1 illustrates a Franz diffusion cell. A Franz diffusion cell having a circular permeation area of 4.15 cm^2 and a receptor chamber volume of 19 mL was set up with a thermo-regulated outer water jacket to maintain the temperature at 37° C. The receptor chamber was filled with 19 mL 1×PBS (pH 7.5) containing 10% ethanol and 1% Tween® 80.
Human skin was pre-treated to remove all subcutaneous fat and was cleaned with 70% ethanol before use. The skin was visually inspected to ensure that it was free of any surface irregularity or small holes and was equally divided into four pieces. The skin was then mounted onto the receptor chamber with the stratum corneum side facing up. About 100 mg of topical formulation A, B, C or D was applied to the skin (actual weight: A, 103.8 mg; B, 101.3 mg; C, 103.2 mg; and D, 103.8 mg), which was then covered with parafilm to avoid evaporation. […]
All samples were processed by solid-phase extraction (SPE) before LC-MS/MS analysis. […] Serlopitant concentrations in samples resulting from formulations A-D were determined by comparison to the standard. Serlopitant was not detected in samples resulting from topical formulations A and D, as expected. […] After an initial lag, serlopitant was detected by LC-MS/MS in the receptor chamber at 6 hours.

[3] = Solubility test of serlopitant in Franz cell receptor solution; assay type: physicochemical

| SMILES | hygroscopicity ([1]; all tested relative humidity conditions) | thermodynamic stability ([1]; below 70 C, Form I vs Form II) | time at which serlopitant was detected in the receptor chamber after initial lag [2] [h] | solubility in receptor solution ([3]; 0.5, 5 and 50 ug/mL in 1xPBS (pH 7.5) containing 10% ethanol and 1% Tween 80, 1 hour at 37 C) | solubility if Tween 80 was not used ([3]; receptor solution without Tween 80) | solubility if ethanol was not used ([3]; receptor solution without ethanol) |
| --- | --- | --- | --- | --- | --- | --- |
| C[C@@H](O[C@H]1CC[C@@H]2CN(C3=CC(=O)CC3)C[C@H]2[C@@H]1c1ccc(F)cc1)c1cc(C(F)(F)F)cc(C(F)(F)F)c1 [Form I] | non-hygroscopic | thermodynamically more stable | – | – | – | – |
| CC(O[C@H]1CC[C@@H]2CN(C3=CC(=O)CC3)C[C@H]2[C@@H]1c1ccc(F)cc1)c1cc(C(F)(F)F)cc(C(F)(F)F)c1 (stereo partly drawn) [serlopitant] | – | – | 6 | remained soluble | decreased significantly | decreased slightly |
